The source of these data is patent publication US11787775B2, “Therapeutic compounds and methods of use” (priority 2020, dated 2023).

What all share (type): binding
One assay deals with TEAD1 (Homo sapiens (Human), UniProt P28347). Nature of the assay: TEAD lipid pocket TR-FRET (Lipid HTRF) probe competition assay. The conditions noted are these: 30 mins incubation with compound; read-out: Lipid HTRF TEAD1 IC50. The protocol: (§1) His-tagged TEAD proteins are pre-incubated with TEAD project compounds for 30 minutes or 4 hours at room temperature. Biotinylated lipid pocket probes are then added to the TEAD/Compound mixture and incubated for 60 minutes at room temperature. The lipid pocket probe competes with the test compound for the TEAD lipid pocket until equilibrium is reached. After 60 minutes, Europium labelled anti-His (Perkin Elmer #ADO 110) and XL665 labelled streptavidin (CIS Bio 610SAXAC) are added to the TEAD/test compound/lipid pocket mixture and incubated for 30 minutes or 4 hours. […] If a TEAD lipid pocket binder such as binds and displaces the lipid pocket probe, the disruption of the TEAD:probe interaction results in a decrease in TR-FRET signal. The potency of compounds as TEAD lipid pocket binders is determined by IC50 value generated using a non-linear 4 parameter curve fit.
Chain of TEAD1 (P28347 whole entry, species assumed): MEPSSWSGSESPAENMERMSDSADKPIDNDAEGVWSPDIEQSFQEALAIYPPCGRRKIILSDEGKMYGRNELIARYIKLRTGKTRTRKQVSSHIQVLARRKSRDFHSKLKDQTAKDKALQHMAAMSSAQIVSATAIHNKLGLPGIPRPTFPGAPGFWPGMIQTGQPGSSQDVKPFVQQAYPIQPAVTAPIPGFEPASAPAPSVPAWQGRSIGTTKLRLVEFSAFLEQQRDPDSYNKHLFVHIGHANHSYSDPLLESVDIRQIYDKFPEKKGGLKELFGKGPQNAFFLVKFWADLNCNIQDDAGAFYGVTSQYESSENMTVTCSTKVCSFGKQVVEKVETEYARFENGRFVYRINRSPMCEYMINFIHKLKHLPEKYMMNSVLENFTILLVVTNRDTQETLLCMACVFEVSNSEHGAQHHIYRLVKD
(§2) Note that the “Compound Number” in Table 2 and Table 3 corresponds to the “Compound Number” in Table 1.

In a further assay the target is TEAD3 (Homo sapiens (Human), UniProt Q99594). Described as above. Particulars: 30 mins incubation with compound. On the procedure:
as §1, §2

Another assay addresses TEAD4 (Homo sapiens (Human), UniProt Q15561). Described as above. Particulars: 30 mins incubation with compound; read-out: Lipid HTRF TEAD4 IC50. The protocol: as §1, §2
For orientation: Time-resolved FRET reads energy transfer from a long-lived donor to a nearby acceptor.

For another assay, the target named is TEAD2 (Homo sapiens (Human), UniProt Q15562). The description is as above. Particulars: 30 mins incubation with compound; read-out: Lipid HTRF TEAD2 IC50. The protocol: as §1, §2
Chain of TEAD2 (Q15562 whole entry): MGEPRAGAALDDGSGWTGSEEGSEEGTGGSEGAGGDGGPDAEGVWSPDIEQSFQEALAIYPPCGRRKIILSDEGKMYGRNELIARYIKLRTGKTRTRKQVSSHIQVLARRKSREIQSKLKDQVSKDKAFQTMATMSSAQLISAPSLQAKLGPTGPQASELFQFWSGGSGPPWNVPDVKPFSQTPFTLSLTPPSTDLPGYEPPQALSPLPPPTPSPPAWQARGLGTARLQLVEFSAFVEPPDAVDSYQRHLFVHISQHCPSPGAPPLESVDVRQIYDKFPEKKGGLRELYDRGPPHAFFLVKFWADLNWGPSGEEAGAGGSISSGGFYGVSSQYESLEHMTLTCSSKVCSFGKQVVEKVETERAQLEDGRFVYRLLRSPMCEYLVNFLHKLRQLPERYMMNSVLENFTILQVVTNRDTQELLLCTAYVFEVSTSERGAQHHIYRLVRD
For the next assay, the target named is TEAD2 YAP50-100 (Homo sapiens (Human), UniProt Q15562). In words: TEAD-YAP protein-protein interaction HTRF assay. The conditions noted are these: TEAD2 YAP50-100 HTRF combined EC50, 30 mins incubation with compound. On the procedure:
(§3) Purified His-tagged TEAD protein (YAP Binding Domain, amino acids 217-447) is pre-incubated with Europium labelled anti-His antibody tracer (Perkin Elmer Cat #AD0110). Small molecule Inhibitors are then incubated with the TEAD-Eu protein complex for 30 minutes or 4 hours to allow for binding to TEAD protein. Biotinylated YAP peptide for TEAD-YAP assays (AA's 50-100) or biotinylated TAZ peptide for TEAD-TAZ assays (AA's 13-57) that has been pre-incubated with streptavidin −xl665 acceptor (CIS-Bio Cat #610SAXAC) or is added to the compound-TEAD mix. The TEAD-YAP-inhibitor mixture is then incubated for 60 minutes at room temperature. All reactions are carried out in a polystyrene plate. After 60 minutes, the plate is read on a plate reader using TR-FRET mode with wavelengths of 665 nm/615 nm. If YAP or TAZ binds to TEAD as expected, a TR-FRET signal results from the proximity of YAP or TAZ and TEAD after binding. If an inhibitor such as peptide 17 (Selleckchem Cat #S8164) interferes with YAP-TEAD or TAZ-TEAD binding, the disruption of the YAP or TAZ:TEAD interaction results in a decrease in TR-FRET signal. The potency of compounds as YAP:TEAD or TAZ:TEAD protein-protein interaction (PPi) inhibitors is determined by an IC50 or EC50 value generated using a non-linear four parameter curve fit. The extent to which representative examples of the disclosed compounds are able to inhibit interaction between TEAD1, TEAD2, TEAD3 or TEAD4 and YAP truncated from amino acids 50-100 or TAZ truncated from amino acids 13-57 as measured by Homogeneous Time Resolved Fluorescence (HTRF) to generate EC50 and IC50 data.
(§4) Note that the “Compound Number” in Table 4 corresponds to the “Compound Number” in Table 1. […]

The next assay deals with TEAD3 YAP50-100 (Homo sapiens (Human), UniProt Q99594). Nature of the assay: TEAD-YAP protein-protein interaction HTRF assay. Particulars: TEAD3 YAP50-100 HTRF combined EC50, 30 mins incubation with compound. On the procedure: as §3, §4
Chain of TEAD3 YAP50-100 (Q99594 218-435): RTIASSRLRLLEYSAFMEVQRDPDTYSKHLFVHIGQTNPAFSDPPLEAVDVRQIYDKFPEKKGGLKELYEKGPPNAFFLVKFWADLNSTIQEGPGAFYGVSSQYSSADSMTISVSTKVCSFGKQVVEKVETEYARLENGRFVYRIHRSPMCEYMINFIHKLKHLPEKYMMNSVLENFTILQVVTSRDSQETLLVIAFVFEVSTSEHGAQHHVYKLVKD
The next assay concerns the target TEAD1 YAP50-100 (Homo sapiens (Human), UniProt P28347). In words: TEAD-YAP protein-protein interaction HTRF assay. Particulars: TEAD1 YAP50-100 HTRF combined EC50, 30 mins incubation with compound. The protocol: as §3, §4
Another assay addresses TEAD4 YAP50-100 (Homo sapiens (Human), UniProt Q15561). Nature of the assay: TEAD-YAP protein-protein interaction HTRF assay. The conditions noted are these: TEAD4 YAP50-100 HTRF combined EC50, 30 mins incubation with compound. On the procedure:
as §3, §4

Usually IC50 stands for the concentration that inhibits the measured activity by half. As a reminder, the EC50 is the concentration giving half of the maximal effect.

Chain of TEAD4 (Q15561 whole entry, species assumed): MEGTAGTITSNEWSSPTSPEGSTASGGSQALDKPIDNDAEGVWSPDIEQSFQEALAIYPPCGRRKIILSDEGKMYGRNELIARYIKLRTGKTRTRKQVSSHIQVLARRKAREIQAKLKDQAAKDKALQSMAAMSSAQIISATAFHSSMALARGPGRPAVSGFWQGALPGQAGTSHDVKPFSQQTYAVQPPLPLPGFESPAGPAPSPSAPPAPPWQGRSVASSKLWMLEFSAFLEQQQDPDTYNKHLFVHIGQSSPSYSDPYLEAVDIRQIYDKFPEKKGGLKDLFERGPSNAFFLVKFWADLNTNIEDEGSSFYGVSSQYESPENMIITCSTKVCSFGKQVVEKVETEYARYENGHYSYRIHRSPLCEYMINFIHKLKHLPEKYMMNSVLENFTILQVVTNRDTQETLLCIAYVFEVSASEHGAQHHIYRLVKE
Chain of TEAD1 YAP50-100 (P28347 209-426): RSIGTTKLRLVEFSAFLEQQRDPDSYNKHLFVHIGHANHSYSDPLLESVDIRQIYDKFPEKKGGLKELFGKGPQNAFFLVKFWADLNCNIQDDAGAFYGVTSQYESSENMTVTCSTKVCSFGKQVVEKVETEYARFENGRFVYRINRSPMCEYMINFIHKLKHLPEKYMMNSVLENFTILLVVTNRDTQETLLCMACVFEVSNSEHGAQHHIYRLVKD
Chain of TEAD2 YAP50-100 (Q15562 217-447): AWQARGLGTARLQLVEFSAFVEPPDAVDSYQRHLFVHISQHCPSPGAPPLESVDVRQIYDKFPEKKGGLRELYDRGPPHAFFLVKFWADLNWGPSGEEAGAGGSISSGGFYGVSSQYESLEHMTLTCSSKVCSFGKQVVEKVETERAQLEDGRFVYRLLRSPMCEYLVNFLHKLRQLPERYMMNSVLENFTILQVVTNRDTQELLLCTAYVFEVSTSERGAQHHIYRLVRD
Chain of TEAD4 YAP50-100 (Q15561 217-434): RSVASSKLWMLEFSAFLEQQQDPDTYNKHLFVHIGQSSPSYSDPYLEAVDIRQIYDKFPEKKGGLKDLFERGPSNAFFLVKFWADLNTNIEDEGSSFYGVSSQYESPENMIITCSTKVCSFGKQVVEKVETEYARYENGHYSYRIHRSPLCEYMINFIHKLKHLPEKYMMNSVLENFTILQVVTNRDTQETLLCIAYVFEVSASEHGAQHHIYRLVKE
Chain of TEAD3 (Q99594 whole entry, species assumed): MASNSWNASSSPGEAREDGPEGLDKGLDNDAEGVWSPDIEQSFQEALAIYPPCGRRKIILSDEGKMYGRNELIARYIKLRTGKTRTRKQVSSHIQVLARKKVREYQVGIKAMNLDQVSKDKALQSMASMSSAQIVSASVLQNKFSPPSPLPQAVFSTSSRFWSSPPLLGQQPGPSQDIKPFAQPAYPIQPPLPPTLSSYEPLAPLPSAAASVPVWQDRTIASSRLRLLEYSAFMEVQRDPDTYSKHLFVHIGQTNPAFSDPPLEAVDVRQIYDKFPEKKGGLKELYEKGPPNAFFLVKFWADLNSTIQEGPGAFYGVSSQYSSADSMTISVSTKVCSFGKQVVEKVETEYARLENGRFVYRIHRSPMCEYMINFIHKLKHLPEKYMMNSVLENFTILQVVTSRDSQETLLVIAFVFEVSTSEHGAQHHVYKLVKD

As for `C=C(CNc1cc(-c2ccc(C(C)C(F)(F)F)cc2)c2c(c1C#N)CCO2)C(=O)O` (single isomer, unassigned) [Enantiomer C from Example 16, 2-(((4-cyano-7-(4-(1,1,1-trifluoropropan-2-yl)phenyl)-2,3-dihydrobenzofuran-5-yl)amino)methyl)acrylic acid], the IC50 at TEAD1 came to 20 nM; on TEAD3 it was 3000 nM; on TEAD4, 10 nM; at TEAD2, 40 nM. Besides, the concentration giving a half-maximal response (EC50) amounted to 20 nM on TEAD2 YAP50-100, 5900 nM on TEAD3 YAP50-100, 10 nM on TEAD1 YAP50-100 and 10 nM on TEAD4 YAP50-100.
In the case of `C=C(CNc1cc(-c2ccc(C(C)C(F)(F)F)cc2)c2c(c1C#N)CCO2)C(=O)O` (single isomer, unassigned) [Enantiomer D from Example 16, 2-(((4-cyano-7-(4-(1,1,1-trifluoropropan-2-yl)phenyl)-2,3-dihydrobenzofuran-5-yl)amino)methyl)acrylic acid], the IC50 on TEAD1 worked out at 80 nM; on TEAD3, 6100 nM; at TEAD4, 30 nM; on TEAD2, 160 nM. Further, the EC50 on TEAD2 YAP50-100 is 70 nM; at TEAD3 YAP50-100, over 50000 nM; on TEAD1 YAP50-100 it was 40 nM; at TEAD4 YAP50-100 it was 100 nM.
As to `C=C(CNc1cc2c(c(-c3ccc(C(C)C)cc3)c1)OCC2)C(=O)O` [Compound 1, 2-[[[7-(4-isopropylphenyl)-2,3-dihydrobenzofuran-5-yl]amino]methyl]prop-2-enoic acid], the IC50 at TEAD1 came to 220 nM; on TEAD3, 8400 nM; on TEAD4 it was 40 nM; on TEAD2, 220 nM. Moreover, the EC50 was 100 nM at TEAD2 YAP50-100, over 50000 nM on TEAD3 YAP50-100, 170 nM at TEAD1 YAP50-100 and 50 nM on TEAD4 YAP50-100.
As for `C=C(CNc1cc2c(c(-c3ccc(C(C)C)cc3)c1)OCC2)C(N)=O` [Compound 2, 2-[[[7-(4-isopropylphenyl)-2,3-dihydrobenzofuran-5-yl]amino]methyl]prop-2-enamide], the half-inhibitory concentration (IC50) was found to be 590 nM at TEAD1, 18000 nM at TEAD3, 30 nM on TEAD4 and 80 nM on TEAD2. In addition, the 50% effective concentration (EC50) was found to be 70 nM at TEAD2 YAP50-100, 18000 nM at TEAD3 YAP50-100, 460 nM on TEAD1 YAP50-100 and 90 nM on TEAD4 YAP50-100.
In the case of `C=C(CNc1cc(-c2ccc(C(C)C)cc2)c2c(c1C#N)CCO2)C(=O)O` [Compound 3, 2-[[[4-cyano-7-(4-isopropylphenyl)-2,3-dihydrobenzofuran-5-yl]amino]methyl]prop-2-enoic acid], the IC50 on TEAD1 was determined as 20 nM; at TEAD3 it was 2880 nM; at TEAD4, 20 nM; at TEAD2, 60 nM. The 50% effective concentration (EC50) at TEAD2 YAP50-100 came out at 30 nM; on TEAD3 YAP50-100, 6220 nM; on TEAD1 YAP50-100, 20 nM; on TEAD4 YAP50-100 it was 30 nM.
As for `C=C(CNc1cc(-c2ccc(C(C)C)cc2)c2c(c1C#N)CCO2)C(N)=O` [Compound 4, 2-[[[4-cyano-7-(4-isopropylphenyl)-2,3-dihydrobenzofuran-5-yl]amino]methyl]prop-2-enamide], the IC50 on TEAD1 is 320 nM; on TEAD3 it was 10000 nM; on TEAD4 it was 80 nM; at TEAD2, 100 nM. The concentration for a half-maximal effect (EC50) on TEAD2 YAP50-100 worked out at 50 nM; at TEAD3 YAP50-100, 13000 nM; at TEAD1 YAP50-100, 230 nM; at TEAD4 YAP50-100, 160 nM.
For `C=C(CNc1cc(-c2ccc(C(C)C)cc2)c2c(c1C#N)CCO2)C(=O)NC` [Compound 5, 2-[[[4-cyano-7-(4-isopropylphenyl)-2,3-dihydrobenzofuran-5-yl]amino]methyl]-N-methyl-prop-2-enamide], the IC50 at TEAD1 was 1600 nM; on TEAD3 it was over 50000 nM; at TEAD4, 1300 nM; at TEAD2, 2000 nM. In addition, the 50% effective concentration (EC50) on TEAD2 YAP50-100, at TEAD3 YAP50-100, on TEAD1 YAP50-100 and on TEAD4 YAP50-100 was over 50000 nM in each case.
`C=C(CNc1cc(-c2ccc(C(C)C)cc2)c2c(c1C#N)CCO2)C(=O)N(C)C` [Compound 6, 2-[[[4-cyano-7-(4-isopropylphenyl)-2,3-dihydrobenzofuran-5-yl]amino]methyl]-N,N-dimethyl-prop-2-enamide]: the IC50 on TEAD1 is 1100 nM; on TEAD3, over 50000 nM; at TEAD4, 500 nM; on TEAD2, 3500 nM. Moreover, the EC50 at TEAD2 YAP50-100 was 2800 nM; on TEAD3 YAP50-100, over 50000 nM; at TEAD1 YAP50-100, 970 nM; on TEAD4 YAP50-100, 1000 nM.
As to `C=C(CN(C)c1cc(-c2ccc(C(C)C)cc2)c2c(c1C#N)CCO2)C(=O)O` [Compound 7, 2-[[[4-cyano-7-(4-isopropylphenyl)-2,3-dihydrobenzofuran-5-yl]-methyl-amino]methyl]prop-2-enoic acid], the IC50 at TEAD1 turned out to be 540 nM; on TEAD3 it was 14000 nM; on TEAD4, 160 nM; at TEAD2 it was 230 nM. Further, the EC50 at TEAD2 YAP50-100 was 180 nM; at TEAD3 YAP50-100 it was over 50000 nM; on TEAD1 YAP50-100, 510 nM; at TEAD4 YAP50-100, 430 nM.
On to `C=C(CNc1cc(-c2ccc(C(C)C)cc2)c2c(c1C#N)CCO2)C(=O)OC` [Compound 8, methyl 2-[[[4-cyano-7-(4-isopropylphenyl)-2,3-dihydrobenzofuran-5-yl]amino]methyl]prop-2-enoate], for which the IC50 on TEAD1 worked out at 70 nM; on TEAD3 it was 240 nM; at TEAD4, 20 nM; on TEAD2 it was 40 nM. Also, the EC50 on TEAD2 YAP50-100, at TEAD3 YAP50-100, at TEAD1 YAP50-100 and on TEAD4 YAP50-100 was over 50000 nM throughout.
As for `C=C(CNc1cc(-c2ccc(C(C)C)cc2)c2c(c1C#N)CCO2)C(=O)NO` [Compound 9, 2-[[[4-cyano-7-(4-isopropylphenyl)-2,3-dihydrobenzofuran-5-yl]amino]methyl]prop-2-enehydroxamic acid], the half-inhibitory concentration (IC50) at TEAD1 came to 280 nM; on TEAD3 it was 2400 nM; on TEAD4 it was 120 nM; on TEAD2, 110 nM. In addition, the EC50 on TEAD2 YAP50-100 worked out at 50 nM; on TEAD3 YAP50-100, 2200 nM; at TEAD1 YAP50-100, 190 nM; on TEAD4 YAP50-100 it was 280 nM.
`C=C(CNc1cc(-c2ccc(C(C)C)cc2)c2c(c1C#N)CCO2)B(O)O` [Compound 10, 1-[[[4-cyano-7-(4-isopropylphenyl)-2,3-dihydrobenzofuran-5-yl]amino]methyl]vinylboronic acid]: the IC50 was 6300 nM on TEAD1, over 50000 nM on TEAD3, 1300 nM on TEAD4 and 2700 nM at TEAD2. For the same compound, the EC50 is 2100 nM at TEAD2 YAP50-100, over 50000 nM at TEAD3 YAP50-100, 5700 nM on TEAD1 YAP50-100 and 2100 nM on TEAD4 YAP50-100.
As for `C=C(CNc1cc(-c2ccc(C(C)C)cc2)c2c(c1C#N)CCO2)C(C)=O` [Compound 11, 7-(4-isopropylphenyl)-5-[(2-methylene-3-oxo-butyl)amino]-2,3-dihydrobenzofuran-4-carbonitrile], the half-maximal inhibitory concentration (IC50) on TEAD1 was 180 nM; on TEAD3, 130 nM; on TEAD4, 40 nM; on TEAD2, 80 nM. Further, the EC50 on TEAD2 YAP50-100 was determined as 130 nM; on TEAD3 YAP50-100 it was 200 nM; at TEAD1 YAP50-100 it was 320 nM; at TEAD4 YAP50-100 it was 80 nM.
